30 compounds from US9687479B2, “Multisubstituted aromatic compounds as serine protease inhibitors” (VERSEON CORPORATION, priority 2013, dated 2017) can be followed below.

Where only a bound is given, the exact number is not on record here.

One experiment has as its target Human thrombin (Homo sapiens (Human), UniProt P00734). As to the kind of experiment: Thrombin protease activity inhibition assay (chromogenic substrate S-2238).
Conditions: not given
It is filed as biochemical. The protocol:
The thrombin activity reported herein (e.g., Table A) was obtained as follows. […] Thrombin was assayed in buffer containing 0.05 M Tris (pH 7.4), 0.015 M NaCl and 0.01% PEG-8000. The final concentration of enzyme used was 3 nM thrombin. […] All assays were performed in 96-well microtiter plates at room temperature (RT). […] Inhibitor IC50 values were determined by adding test compound as ten point, three-fold serial dilutions in buffer solution, as known in the art. The plate was read at 10 minutes after substrate addition. The IC50 was calculated by plotting the percent (%) inhibition against compound concentration and fitting the data to a constrained four parameter sigmoidal curve, as known in the art.
As to `Nc1cc(-c2ccc[nH]c2=O)n[nH]1` [Cmpd 1, 3-(5-amino-1H-pyrazol-3-yl)-1,2-dihydropyridin-2-one], the IC50 (commonly the concentration needed to halve the response being measured) was above 100000 nM.

The experiment is the same for the next values; noted with them: 3 nM thrombin, 125 μM S-2238, 10 min pre-incubation, RT.
Compound `O=C(c1ccoc1)n1nc(-c2cccn(Cc3ccncc3)c2=O)cc1NCc1ccc(Cl)s1` [Cmpd 6, 3-(5-[(5-chlorothiophen-2-yl)methyl]amino-1-[(furan-3-yl)carbonyl]-1H-pyrazol-3-yl)-1-(pyridin-4-ylmethyl)-1,2-dihydropyridin-2-one] showed an IC50 below 100 nM.

Compound `CC(C)(C)C(=O)n1nc(-c2cccn(Cc3ccccc3Cl)c2=O)cc1NCc1ccc(Cl)s1` [Cmpd 27, 1-[(2-chlorophenyl)methyl]-3-(5-[(5-chlorothiophen-2-yl)methyl]amino-1-(2,2-dimethylpropanoyl)-1H-pyrazol-3-yl)-1,2-dihydropyridin-2-one] gave an IC50 below 100 nM.

`COc1ccccc1C(=O)n1nc(-c2cccn(Cc3ccccc3Cl)c2=O)cc1NCc1ccc(Cl)s1` [Cmpd 28, 1-[(2-chlorophenyl)methyl]-3-(5-[(5-chlorothiophen-2-yl)methyl]amino-1-[(2-methoxyphenyl)carbonyl]-1H-pyrazol-3-yl)-1,2-dihydropyridin-2-one] came in with an IC50 below 100 nM.

As for `O=C(c1ccoc1)n1nc(-c2cccn(Cc3ccccc3Cl)c2=O)cc1NCc1ccc(Cl)s1` [Cmpd 29, 1-[(2-chlorophenyl)methyl]-3-(5-[(5-chlorothiophen-2-yl)methyl]amino-1-[(furan-3-yl)carbonyl]-1H-pyrazol-3-yl)-1,2-dihydropyridin-2-one], the IC50 is below 100 nM.

Regarding `O=c1c(-c2cc(NCc3ccc(Cl)s3)[nH]n2)cccn1Cc1ccccc1Cl` [Cmpd 30, 1-[(2-chlorophenyl)methyl]-3-(5-[(5-chlorothiophen-2-yl)methyl]amino-1H-pyrazol-3-yl)-1,2-dihydropyridin-2-one], the IC50 is 10000 to 100000 nM.

For `CC(C)(C)C(=O)n1nc(-c2cccn(Cc3cccc(Cl)c3)c2=O)cc1NCc1ccc(Cl)s1` [Cmpd 31, 1-[(3-chlorophenyl)methyl]-3-(5-[(5-chlorothiophen-2-yl)methyl]amino-1-(2,2-dimethylpropanoyl)-1H-pyrazol-3-yl)-1,2-dihydropyridin-2-one], the IC50 is below 100 nM.

For the compound `COc1ccccc1C(=O)n1nc(-c2cccn(Cc3cccc(Cl)c3)c2=O)cc1NCc1ccc(Cl)s1` [Cmpd 32, 1-[(3-chlorophenyl)methyl]-3-(5-[(5-chlorothiophen-2-yl)methyl]amino-1-[(2-methoxyphenyl)carbonyl]-1H-pyrazol-3-yl)-1,2-dihydropyridin-2-one], the IC50 was below 100 nM.

`O=C(c1ccoc1)n1nc(-c2cccn(Cc3cccc(Cl)c3)c2=O)cc1NCc1ccc(Cl)s1` [Cmpd 33, 1-[(3-chlorophenyl)methyl]-3-(5-[(5-chlorothiophen-2-yl)methyl]amino-1-[(furan-3-yl)carbonyl]-1H-pyrazol-3-yl)-1,2-dihydropyridin-2-one] registered an IC50 below 100 nM.

On to `O=c1c(-c2cc(NCc3ccc(Cl)s3)[nH]n2)cccn1Cc1cccc(Cl)c1` [Cmpd 34, 1-[(3-chlorophenyl)methyl]-3-(5-[(5-chlorothiophen-2-yl)methyl]amino-1H-pyrazol-3-yl)-1,2-dihydropyridin-2-one], for which the IC50 lay in the range of 1000 to 10000 nM.

The compound `CC(C)(C)C(=O)n1nc(-c2cccn(Cc3ccc(Cl)cc3)c2=O)cc1NCc1ccc(Cl)s1` [Cmpd 35, 1-[(4-chlorophenyl)methyl]-3-(5-[(5-chlorothiophen-2-yl)methyl]amino-1-(2,2-dimethylpropanoyl)-1H-pyrazol-3-yl)-1,2-dihydropyridin-2-one] returned an IC50 below 100 nM.

In the case of `COc1ccccc1C(=O)n1nc(-c2cccn(Cc3ccc(Cl)cc3)c2=O)cc1NCc1ccc(Cl)s1` [Cmpd 36, 1-[(4-chlorophenyl)methyl]-3-(5-[(5-chlorothiophen-2-yl)methyl]amino-1-[(2-methoxyphenyl)carbonyl]-1H-pyrazol-3-yl)-1,2-dihydropyridin-2-one], the IC50 was below 100 nM.

`O=C(c1ccoc1)n1nc(-c2cccn(Cc3ccc(Cl)cc3)c2=O)cc1NCc1ccc(Cl)s1` [Cmpd 37, 1-[(4-chlorophenyl)methyl]-3-(5-[(5-chlorothiophen-2-yl)methyl]amino-1-[(furan-3-yl)carbonyl]-1H-pyrazol-3-yl)-1,2-dihydropyridin-2-one] came in with an IC50 below 100 nM.

Compound `O=c1c(-c2cc(NCc3ccc(Cl)s3)[nH]n2)cccn1Cc1ccc(Cl)cc1` [Cmpd 38, 1-[(4-chlorophenyl)methyl]-3-(5-[(5-chlorothiophen-2-yl)methyl]amino-1H-pyrazol-3-yl)-1,2-dihydropyridin-2-one] yielded an IC50 above 100000 nM.

Turning to `CC(C)(C)C(=O)n1nc(-c2cccn(Cc3ccc(Cl)s3)c2=O)cc1NCc1ccc(Cl)s1` [Cmpd 39, 1-[(5-chlorothiophen-2-yl)methyl]-3-(5-[(5-chlorothiophen-2-yl)methyl]amino-1-(2,2-dimethylpropanoyl)-1H-pyrazol-3-yl)-1,2-dihydropyridin-2-one], the IC50 is below 100 nM.

Take `COc1ccccc1C(=O)n1nc(-c2cccn(Cc3ccc(Cl)s3)c2=O)cc1NCc1ccc(Cl)s1` [Cmpd 40, 1-[(5-chlorothiophen-2-yl)methyl]-3-(5-[(5-chlorothiophen-2-yl)methyl]amino-1-[(2-methoxyphenyl)carbonyl]-1H-pyrazol-3-yl)-1,2-dihydropyridin-2-one]: the 50% inhibitory concentration (IC50) is below 100 nM.

On to `O=C(c1ccoc1)n1nc(-c2cccn(Cc3ccc(Cl)s3)c2=O)cc1NCc1ccc(Cl)s1` [Cmpd 41, 1-[(5-chlorothiophen-2-yl)methyl]-3-(5-[(5-chlorothiophen-2-yl)methyl]amino-1-[(furan-3-yl)carbonyl]-1H-pyrazol-3-yl)-1,2-dihydropyridin-2-one], for which the concentration for half-maximal inhibition (IC50) was below 100 nM.

`O=c1c(-c2cc(NCc3ccc(Cl)s3)[nH]n2)cccn1Cc1ccc(Cl)s1` [Cmpd 42, 1-[(5-chlorothiophen-2-yl)methyl]-3-(5-[(5-chlorothiophen-2-yl)methyl]amino-1H-pyrazol-3-yl)-1,2-dihydropyridin-2-one]: the half-maximal inhibitory concentration (IC50) was above 100000 nM.

Take `CC(C)(C)C(=O)n1nc(-c2cccn(Cc3ccccc3)c2=O)cc1NCc1ccc(Cl)s1` [Cmpd 43, 1-benzyl-3-(5-[(5-chlorothiophen-2-yl)methyl]amino-1-(2,2-dimethylpropanoyl)-1H-pyrazol-3-yl)-1,2-dihydropyridin-2-one]: the concentration for half-maximal inhibition (IC50) was below 100 nM.

In the case of `COCC(C)(C)C(=O)n1nc(-c2cccn(Cc3ccccc3)c2=O)cc1NCc1ccc(Cl)s1` [Cmpd 44, 1-benzyl-3-(5-[(5-chlorothiophen-2-yl)methyl]amino-1-(3-methoxy-2,2-dimethylpropanoyl)-1H-pyrazol-3-yl)-1,2-dihydropyridin-2-one], the IC50 was below 100 nM.

`O=C(c1cccc2c1OCCO2)n1nc(-c2cccn(Cc3ccccc3)c2=O)cc1NCc1ccc(Cl)s1` [Cmpd 45, 1-benzyl-3-(5-[(5-chlorothiophen-2-yl)methyl]amino-1-[(2,3-dihydro-1,4-benzodioxin-5-yl)carbonyl]-1H-pyrazol-3-yl)-1,2-dihydropyridin-2-one] registered a concentration for half-maximal inhibition (IC50) below 100 nM.

In the case of `COc1ccccc1C(=O)n1nc(-c2cccn(Cc3ccccc3)c2=O)cc1NCc1ccc(Cl)s1` [Cmpd 47, 1-benzyl-3-(5-[(5-chlorothiophen-2-yl)methyl]amino-1-[(2-methoxyphenyl)carbonyl]-1H-pyrazol-3-yl)-1,2-dihydropyridin-2-one], the IC50 is below 100 nM.

Compound `O=c1c(-c2cc(NCc3ccc(Cl)s3)[nH]n2)cccn1Cc1ccccc1` [Cmpd 54, 1-benzyl-3-(5-[(5-chlorothiophen-2-yl)methyl]amino-1H-pyrazol-3-yl)-1,2-dihydropyridin-2-one] gave an IC50 of 1000 to 10000 nM.

Consider `O=C(c1ccccc1Cl)n1nc(-c2cccn(Cc3ccccc3)c2=O)cc1NCc1ccc(Cl)s1` [Cmpd 55, 1-benzyl-3-1-[(2-chlorophenyl)carbonyl]-5-[(5-chlorothiophen-2-yl)methyl]amino-1H-pyrazol-3-yl-1,2-dihydropyridin-2-one], for which the IC50 is below 100 nM.

In turn, `CC(C)(C)C(=O)n1nc(-c2cccn(CC#N)c2=O)cc1NCc1ccc(Cl)s1` [Cmpd 56, 2-[3-(5-[(5-chlorothiophen-2-yl)methyl]amino-1-(2,2-dimethylpropanoyl)-1H-pyrazol-3-yl)-2-oxo-1,2-dihydropyridin-1-yl]acetonitrile] displayed an IC50 below 100 nM.

In the case of `COc1ccccc1C(=O)n1nc(-c2cccn(CC#N)c2=O)cc1NCc1ccc(Cl)s1` [Cmpd 57, 2-[3-(5-[(5-chlorothiophen-2-yl)methyl]amino-1-[(2-methoxyphenyl)carbonyl]-1H-pyrazol-3-yl)-2-oxo-1,2-dihydropyridin-1-yl]acetonitrile], the IC50 was below 100 nM.

In turn, `N#CCn1cccc(-c2cc(NCc3ccc(Cl)s3)n(C(=O)c3ccoc3)n2)c1=O` [Cmpd 58, 2-[3-(5-[(5-chlorothiophen-2-yl)methyl]amino-1-[(furan-3-yl)carbonyl]-1H-pyrazol-3-yl)-2-oxo-1,2-dihydropyridin-1-yl]acetonitrile] gave a half-maximal inhibitory concentration (IC50) below 100 nM.

As to `N#CCn1cccc(-c2cc(NCc3ccc(Cl)s3)[nH]n2)c1=O` [Cmpd 60, 2-[3-(5-[(5-chlorothiophen-2-yl)methyl]amino-1H-pyrazol-3-yl)-2-oxo-1,2-dihydropyridin-1-yl]acetonitrile], the IC50 was in the range of 10000 to 100000 nM.

With `O=C(c1ccccc1)n1nc(-c2ccc[nH]c2=O)cc1NCc1ccc(Cl)s1` [Cmpd 61, 3-(1-benzoyl-5-[(5-chlorothiophen-2-yl)methyl]amino-1H-pyrazol-3-yl)-1,2-dihydropyridin-2-one], the IC50 was below 100 nM.

As for `O=C(c1ccccc1)n1nc(-c2cccn(Cc3ccco3)c2=O)cc1NCc1ccc(Cl)s1` [Cmpd 63, 3-(1-benzoyl-5-[(5-chlorothiophen-2-yl)methyl]amino-1H-pyrazol-3-yl)-1-(furan-2-ylmethyl)-1,2-dihydropyridin-2-one], the IC50 was below 100 nM.
